Data reported in ChEMBL document CHEMBL3991601, “The target landscape of clinical kinase drugs” (Science, 2017).
The source made the active and inactive calls. For most assays here, no stated cut-off is given here; in the data, actives have a measured Kd and inactives only a lower limit.

Tests used:
Activin receptor type-1B = target: T1, Activin receptor type-1B (Homo sapiens, UniProt P36896)
T1 sequence (P36896 whole entry): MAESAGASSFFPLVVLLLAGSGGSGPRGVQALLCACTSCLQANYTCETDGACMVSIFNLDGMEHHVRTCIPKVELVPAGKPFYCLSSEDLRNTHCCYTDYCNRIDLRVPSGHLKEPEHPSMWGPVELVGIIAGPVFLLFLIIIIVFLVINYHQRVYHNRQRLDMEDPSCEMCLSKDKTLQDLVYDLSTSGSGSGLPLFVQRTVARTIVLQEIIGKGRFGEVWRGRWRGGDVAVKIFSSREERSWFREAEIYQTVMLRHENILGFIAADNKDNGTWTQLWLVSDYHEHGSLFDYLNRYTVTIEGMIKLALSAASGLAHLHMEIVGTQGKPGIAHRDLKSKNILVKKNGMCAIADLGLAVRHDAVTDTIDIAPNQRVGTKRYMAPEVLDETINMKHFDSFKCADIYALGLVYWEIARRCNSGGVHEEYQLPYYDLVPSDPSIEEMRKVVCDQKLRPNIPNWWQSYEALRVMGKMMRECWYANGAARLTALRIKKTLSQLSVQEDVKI

[1] = target: Casein kinase I isoform epsilon (Homo sapiens, UniProt P49674)
Casein kinase I isoform epsilon, sequence (P49674 whole entry, canonical isoform): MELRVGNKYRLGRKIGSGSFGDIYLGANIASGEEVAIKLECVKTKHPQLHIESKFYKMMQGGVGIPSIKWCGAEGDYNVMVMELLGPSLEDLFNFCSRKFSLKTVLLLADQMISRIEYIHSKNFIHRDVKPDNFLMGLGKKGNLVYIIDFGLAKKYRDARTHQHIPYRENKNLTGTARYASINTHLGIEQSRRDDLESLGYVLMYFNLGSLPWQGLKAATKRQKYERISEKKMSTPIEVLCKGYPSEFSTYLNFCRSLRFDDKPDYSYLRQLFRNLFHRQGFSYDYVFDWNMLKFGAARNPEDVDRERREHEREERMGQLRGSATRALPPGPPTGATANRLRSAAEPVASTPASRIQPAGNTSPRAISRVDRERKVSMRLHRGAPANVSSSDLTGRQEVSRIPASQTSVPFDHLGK

[2] = target: T2, Serine/threonine-protein kinase ICK (Homo sapiens, UniProt Q9UPZ9)
T2 sequence (Q9UPZ9 whole entry): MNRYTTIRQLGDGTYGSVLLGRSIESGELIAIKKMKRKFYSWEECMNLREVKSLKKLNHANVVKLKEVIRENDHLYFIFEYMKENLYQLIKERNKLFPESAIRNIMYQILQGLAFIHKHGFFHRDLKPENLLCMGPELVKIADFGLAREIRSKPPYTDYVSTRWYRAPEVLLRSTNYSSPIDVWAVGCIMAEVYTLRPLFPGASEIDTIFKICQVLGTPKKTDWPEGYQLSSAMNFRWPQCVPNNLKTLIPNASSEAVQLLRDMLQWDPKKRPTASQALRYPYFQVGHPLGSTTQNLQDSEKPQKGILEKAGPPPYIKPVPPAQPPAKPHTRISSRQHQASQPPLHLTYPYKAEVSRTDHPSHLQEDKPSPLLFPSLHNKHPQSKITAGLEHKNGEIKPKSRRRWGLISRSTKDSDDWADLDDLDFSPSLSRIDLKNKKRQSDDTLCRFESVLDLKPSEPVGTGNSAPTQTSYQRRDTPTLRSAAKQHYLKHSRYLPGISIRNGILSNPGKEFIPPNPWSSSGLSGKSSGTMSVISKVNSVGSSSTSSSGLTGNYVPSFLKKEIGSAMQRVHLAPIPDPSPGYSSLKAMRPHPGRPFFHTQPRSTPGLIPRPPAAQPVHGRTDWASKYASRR

[3] = target: T3, Dual specificity mitogen-activated protein kinase kinase 5 (Homo sapiens, UniProt Q13163)
T3 sequence (Q13163 whole entry): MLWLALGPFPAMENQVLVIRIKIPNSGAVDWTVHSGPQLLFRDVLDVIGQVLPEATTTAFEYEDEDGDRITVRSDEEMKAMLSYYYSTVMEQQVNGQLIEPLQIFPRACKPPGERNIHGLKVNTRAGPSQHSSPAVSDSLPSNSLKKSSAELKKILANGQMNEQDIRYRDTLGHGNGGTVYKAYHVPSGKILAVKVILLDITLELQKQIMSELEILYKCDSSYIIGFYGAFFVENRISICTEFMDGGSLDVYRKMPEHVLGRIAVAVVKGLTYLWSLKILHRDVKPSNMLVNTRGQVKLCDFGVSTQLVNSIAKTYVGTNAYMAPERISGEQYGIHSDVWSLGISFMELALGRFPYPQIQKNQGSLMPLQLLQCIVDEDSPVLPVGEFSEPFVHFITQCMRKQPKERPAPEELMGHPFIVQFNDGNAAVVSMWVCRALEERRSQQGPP

[4] = target: GTP-binding nuclear protein Ran (Homo sapiens, UniProt P62826)
ADP/ATP translocase 3 = target: T4, ADP/ATP translocase 3 (Homo sapiens, UniProt P12236)
T4 sequence (P12236 whole entry): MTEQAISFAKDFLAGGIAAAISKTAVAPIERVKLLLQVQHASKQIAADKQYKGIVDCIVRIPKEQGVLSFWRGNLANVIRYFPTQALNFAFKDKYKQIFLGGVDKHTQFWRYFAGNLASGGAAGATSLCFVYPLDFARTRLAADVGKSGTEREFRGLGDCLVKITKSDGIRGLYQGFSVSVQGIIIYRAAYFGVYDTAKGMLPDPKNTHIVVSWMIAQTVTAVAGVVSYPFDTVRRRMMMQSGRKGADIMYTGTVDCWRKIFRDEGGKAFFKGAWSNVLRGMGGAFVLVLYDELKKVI

[5] = target: Structural maintenance of chromosomes protein 2 (Homo sapiens, UniProt O95347)
Structural maintenance of chromosomes protein 2, sequence (O95347 whole entry): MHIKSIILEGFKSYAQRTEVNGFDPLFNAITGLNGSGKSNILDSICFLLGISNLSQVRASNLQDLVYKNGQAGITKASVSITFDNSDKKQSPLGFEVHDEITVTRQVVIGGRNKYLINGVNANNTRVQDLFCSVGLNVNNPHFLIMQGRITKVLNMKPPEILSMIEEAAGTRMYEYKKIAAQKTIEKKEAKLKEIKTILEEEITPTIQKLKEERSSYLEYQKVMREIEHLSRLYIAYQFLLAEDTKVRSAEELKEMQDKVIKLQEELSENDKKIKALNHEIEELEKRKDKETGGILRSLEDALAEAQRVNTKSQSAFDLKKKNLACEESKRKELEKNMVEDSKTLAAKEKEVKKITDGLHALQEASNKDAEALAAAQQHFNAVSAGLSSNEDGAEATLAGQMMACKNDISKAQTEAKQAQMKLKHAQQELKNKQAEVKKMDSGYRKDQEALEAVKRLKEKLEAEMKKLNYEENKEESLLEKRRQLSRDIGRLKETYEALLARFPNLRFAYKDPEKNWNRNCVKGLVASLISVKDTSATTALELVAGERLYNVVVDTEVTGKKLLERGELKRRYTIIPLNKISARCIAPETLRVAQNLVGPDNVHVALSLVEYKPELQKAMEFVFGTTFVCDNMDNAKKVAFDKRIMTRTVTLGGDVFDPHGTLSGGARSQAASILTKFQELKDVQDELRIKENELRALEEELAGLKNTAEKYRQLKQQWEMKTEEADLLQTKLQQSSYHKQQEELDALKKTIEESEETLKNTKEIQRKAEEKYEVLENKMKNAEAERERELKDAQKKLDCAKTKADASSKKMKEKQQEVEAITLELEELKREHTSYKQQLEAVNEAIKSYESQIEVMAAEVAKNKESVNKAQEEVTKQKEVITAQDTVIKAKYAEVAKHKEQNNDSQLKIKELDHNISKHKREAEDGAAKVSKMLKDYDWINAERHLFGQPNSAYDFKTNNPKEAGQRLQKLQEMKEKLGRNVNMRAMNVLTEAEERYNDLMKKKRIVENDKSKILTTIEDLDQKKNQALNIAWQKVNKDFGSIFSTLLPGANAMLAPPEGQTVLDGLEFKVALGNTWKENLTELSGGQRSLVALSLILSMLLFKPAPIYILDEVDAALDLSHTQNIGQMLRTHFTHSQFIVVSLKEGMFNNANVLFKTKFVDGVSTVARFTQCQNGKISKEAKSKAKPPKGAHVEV

[6] = target: Cyclin-dependent kinase 7 (Homo sapiens, UniProt P50613)
Cyclin-dependent kinase 7, sequence (P50613 whole entry): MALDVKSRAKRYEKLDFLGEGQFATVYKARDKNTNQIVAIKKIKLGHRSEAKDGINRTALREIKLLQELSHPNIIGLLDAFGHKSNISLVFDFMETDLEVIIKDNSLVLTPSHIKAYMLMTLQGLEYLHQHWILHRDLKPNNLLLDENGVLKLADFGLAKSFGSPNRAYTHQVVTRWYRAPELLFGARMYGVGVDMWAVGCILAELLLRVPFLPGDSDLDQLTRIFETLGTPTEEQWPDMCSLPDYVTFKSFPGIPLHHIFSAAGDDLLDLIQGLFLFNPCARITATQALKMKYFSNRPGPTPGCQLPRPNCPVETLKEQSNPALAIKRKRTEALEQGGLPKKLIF

[7] = target: T5, Mitogen-activated protein kinase kinase kinase 2 (Homo sapiens, UniProt Q9Y2U5)
T5 sequence (Q9Y2U5 whole entry): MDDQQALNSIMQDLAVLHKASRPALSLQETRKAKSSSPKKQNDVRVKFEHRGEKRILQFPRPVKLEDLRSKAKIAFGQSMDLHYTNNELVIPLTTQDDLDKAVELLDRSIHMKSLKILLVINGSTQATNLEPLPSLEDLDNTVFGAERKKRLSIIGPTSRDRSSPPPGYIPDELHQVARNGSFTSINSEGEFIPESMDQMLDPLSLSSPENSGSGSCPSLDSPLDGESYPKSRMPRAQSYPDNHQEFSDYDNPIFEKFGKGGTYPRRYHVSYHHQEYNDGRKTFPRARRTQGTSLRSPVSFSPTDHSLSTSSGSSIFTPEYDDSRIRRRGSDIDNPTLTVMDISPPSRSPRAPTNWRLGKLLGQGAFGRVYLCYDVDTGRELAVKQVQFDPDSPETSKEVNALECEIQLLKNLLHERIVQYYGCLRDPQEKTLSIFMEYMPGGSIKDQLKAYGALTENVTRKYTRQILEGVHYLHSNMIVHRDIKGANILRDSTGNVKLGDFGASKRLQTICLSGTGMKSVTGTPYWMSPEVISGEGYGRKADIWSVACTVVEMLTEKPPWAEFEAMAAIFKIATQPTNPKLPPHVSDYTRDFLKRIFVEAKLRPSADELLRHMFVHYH

[8] = target: Ribosomal protein S6 kinase beta-1 (Homo sapiens, UniProt P23443)
Ribosomal protein S6 kinase beta-1, sequence (P23443 whole entry): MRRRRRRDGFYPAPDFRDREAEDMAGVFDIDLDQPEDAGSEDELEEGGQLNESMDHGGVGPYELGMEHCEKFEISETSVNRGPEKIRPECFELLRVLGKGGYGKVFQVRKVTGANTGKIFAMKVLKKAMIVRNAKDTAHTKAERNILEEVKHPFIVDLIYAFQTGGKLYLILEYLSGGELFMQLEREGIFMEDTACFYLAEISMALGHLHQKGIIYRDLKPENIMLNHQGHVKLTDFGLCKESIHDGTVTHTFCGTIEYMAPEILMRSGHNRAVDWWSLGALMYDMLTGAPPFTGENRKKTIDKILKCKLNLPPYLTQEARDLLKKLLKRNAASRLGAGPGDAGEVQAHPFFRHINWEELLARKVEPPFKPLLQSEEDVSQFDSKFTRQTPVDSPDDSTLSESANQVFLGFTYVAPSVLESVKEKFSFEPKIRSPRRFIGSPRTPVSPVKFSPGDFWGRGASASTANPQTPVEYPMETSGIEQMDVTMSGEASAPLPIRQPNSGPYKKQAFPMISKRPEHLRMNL

Row | Kd (Activin receptor type-1B) | Kd [1] | Kd [2] | Kd [3] | Kd [4] | Kd (ADP/ATP translocase 3) | Kd [5] | Kd [6] | Kd [7] | Kd [8] | SMILES
1 | > 30 µM (inactive) | > 30 µM (inactive) | > 30 µM (inactive) | > 30 µM (inactive) | > 30 µM (inactive) | > 30 µM (inactive) | > 30 µM (inactive) | – | – | – | Cc1cc(Nc2cc(N3CCN(C)CC3)nc(/C=C/c3ccccc3)n2)n[nH]1 [ENMD-2076]
2 | – | – | – | – | > 30 µM (inactive) | > 30 µM (inactive) | 1.11 µM (active) | – | – | – | CCn1c(-c2nonc2N)nc2c(C#CC(C)(C)O)ncc(OC[C@H]3CCCNC3)c21 [GSK-690693]
3 | 1.27 µM (active) | 0.841 µM (active) | – | 1.48 µM (active) | > 30 µM (inactive) | > 30 µM (inactive) | > 30 µM (inactive) | > 30 µM (inactive) | > 30 µM (inactive) | – | Cc1nc(N)sc1-c1ccnc(Nc2ccc(N3CCOCC3)cc2)n1 [CYC-116]
4 | > 30 µM (inactive) | > 30 µM (inactive) | > 30 µM (inactive) | > 30 µM (inactive) | > 30 µM (inactive) | > 30 µM (inactive) | > 30 µM (inactive) | – | > 30 µM (inactive) | > 30 µM (inactive) | OCCn1cc(-c2cnc3nnn(Cc4ccc5ncccc5c4)c3n2)cn1 [PF-04217903]

Second part, the compound before the results:

Row | SMILES | Kd (Activin receptor type-1B) | Kd [1] | Kd [2] | Kd [3] | Kd [4] | Kd (ADP/ATP translocase 3) | Kd [5] | Kd [6] | Kd [7] | Kd [8]
5 | COc1cc2nccc(Oc3ccc(NC(=O)NC4CC4)c(Cl)c3)c2cc1C(N)=O [LENVATINIB] | > 30 µM (inactive) | – | > 30 µM (inactive) | 2.91 µM (active) | > 30 µM (inactive) | > 30 µM (inactive) | > 30 µM (inactive) | > 30 µM (inactive) | – | –
6 | Cc1c(F)cc(C(=O)NC2CC2)cc1-c1ccc(C(=O)NCC(C)(C)C)cn1 [LOSMAPIMOD] | > 30 µM (inactive) | > 30 µM (inactive) | > 30 µM (inactive) | > 30 µM (inactive) | – | > 30 µM (inactive) | > 30 µM (inactive) | > 30 µM (inactive) | > 30 µM (inactive) | > 30 µM (inactive)
7 | Nc1nc(N)c2nc(-c3cccc(O)c3)c(-c3cccc(O)c3)nc2n1 [TG100-115] | – | – | – | – | > 30 µM (inactive) | > 30 µM (inactive) | > 30 µM (inactive) | – | – | –
8 | O=C(Nc1cccc(Cl)c1)Nc1ncc(CCNc2ncnc3ccsc23)s1 [SNS-314] | > 30 µM (inactive) | > 30 µM (inactive) | > 30 µM (inactive) | > 30 µM (inactive) | > 30 µM (inactive) | > 30 µM (inactive) | > 30 µM (inactive) | – | > 30 µM (inactive) | –
9 | C[C@@H](c1ccc2nccn2c1)n1nnc2ncc(-c3cnn(C)c3)nc21 [SAVOLITINIB] | – | > 30 µM (inactive) | > 30 µM (inactive) | > 30 µM (inactive) | > 30 µM (inactive) | > 30 µM (inactive) | > 30 µM (inactive) | > 30 µM (inactive) | > 30 µM (inactive) | –
10 | CN1CCN(c2ccc3nc(-c4c(N)c5c(F)cccc5[nH]c4=O)[nH]c3c2)CC1 [DOVITINIB] | – | – | – | – | > 30 µM (inactive) | > 30 µM (inactive) | > 30 µM (inactive) | – | – | –
11 | CC[C@H](Nc1ncnc2[nH]cnc12)c1nc2cccc(F)c2c(=O)n1-c1ccccc1 [IDELALISIB] | > 30 µM (inactive) | > 30 µM (inactive) | > 30 µM (inactive) | > 30 µM (inactive) | – | > 30 µM (inactive) | > 30 µM (inactive) | > 30 µM (inactive) | > 30 µM (inactive) | > 30 µM (inactive)
12 | Cn1ncc(Cl)c1-c1cc(C(=O)N[C@H](CN)Cc2cccc(F)c2)sc1Cl [AFURESERTIB] | > 30 µM (inactive) | > 30 µM (inactive) | – | > 30 µM (inactive) | – | > 30 µM (inactive) | > 30 µM (inactive) | > 30 µM (inactive) | > 30 µM (inactive) | > 30 µM (inactive)
13 | O=C(c1ccc(F)c(F)c1Nc1ccc(I)cc1F)N1CC(O)([C@@H]2CCCCN2)C1 [COBIMETINIB] | > 30 µM (inactive) | > 30 µM (inactive) | > 30 µM (inactive) | > 30 µM (inactive) | > 30 µM (inactive) | > 30 µM (inactive) | > 30 µM (inactive) | > 30 µM (inactive) | > 30 µM (inactive) | –
14 | CCc1cnn2c(NCc3ccc[n+]([O-])c3)cc(N3CCCC[C@H]3CCO)nc12 [DINACICLIB] | > 30 µM (inactive) | > 30 µM (inactive) | 0.271 µM (active) | > 30 µM (inactive) | > 30 µM (inactive) | > 30 µM (inactive) | > 30 µM (inactive) | – | > 30 µM (inactive) | > 30 µM (inactive)
15 | CO[C@H]1C[C@@H]2CC[C@@H](C)[C@@](O)(O2)C(=O)C(=O)N2CCCC[C@H]2C(=O)O[C@H]([C@H](C)C[C@@H]2CC[C@@H](OCCO)[C@H](OC)C2)CC(=O)[C@H](C)/C=C(\C)[C@@H](O)[C@@H](OC)C(=O)[C@H](C)C[C@H](C)/C=C/C=C/C=C/1C [EVEROLIMUS] | > 30 µM (inactive) | > 30 µM (inactive) | – | > 30 µM (inactive) | > 30 µM (inactive) | > 30 µM (inactive) | > 30 µM (inactive) | > 30 µM (inactive) | > 30 µM (inactive) | > 30 µM (inactive)
16 | Cc1cn(-c2cc(NC(=O)c3ccc(C)c(Nc4nccc(-c5cccnc5)n4)c3)cc(C(F)(F)F)c2)cn1 [NILOTINIB] | – | – | – | – | > 30 µM (inactive) | > 30 µM (inactive) | > 30 µM (inactive) | – | – | –
17 | COc1cc2nccc(Oc3ccc(NC(=O)Nc4cc(C)on4)c(Cl)c3)c2cc1OC [TIVOZANIB] | > 30 µM (inactive) | – | > 30 µM (inactive) | > 30 µM (inactive) | > 30 µM (inactive) | > 30 µM (inactive) | > 30 µM (inactive) | > 30 µM (inactive) | > 30 µM (inactive) | > 30 µM (inactive)
